Entries after “also recorded” stand apart in the source; their conditions may differ.

The nature of test [1]: Tests of AII fragments for effectiveness (test not described). To be noted: test not specified.
A further test concerns dendritic cells. The test can be described thus: Effect of angiotensin peptides on dendritic cell proliferation (cells per well by phase contrast microscopy). Format: cell-based, C57B1/6 mice. As to conditions: cytokine(s) added to the cultures alone. From the text: Isolation of Dendritic Cells from Mice Treated with flt3 Ligand: Spleens were enriched in vivo with dendritic cells by stimulation with flt3 ligand (Marakovsky et al, 1996). C57B1/6 mice were subcutaneously injected with 4×10^6 flt3 ligand-secreting B16 melanoma cells prepared by transfection of murine flt3 ligand cDNA with the retroviral vector MFG. Spleen cells were harvested after the tumors reached 2-3 cm in diameter, at which time the spleens were 5-10 fold enlarged over those of untreated mice.
The spleens were harvested and the cells were dispersed through sterile screens. A single cell suspension of whole splenocytes was resuspended in a high-density BSA solution (1 ml/spleen) containing 10.6 g BSA, 18.6 ml PBS, 2.9 ml 1 N NaOH, and 6.5 ml water. After overlaying 2 ml of ice-cold RPMI, the splenocyte/BSA solution was centrifuged for 15 minutes at 9500 g. About 5×10^7 dendritic cells/spleen were recovered from the interface and resuspended in RPMI. […]
Culture of Dendritic Cells: Twenty four hours after isolation, these cells were counted and placed in culture in RPMI 1640 supplemented with 10% fetal calf serum, 2 mM 1 glutamine, 1 mM sodium pyruvate, 50 μM mercaptoethanol, 100 U/ml penicillin and 100 μg/ml streptomycin at a concentration of 1×10^3 cells/well of a 96 well plate. One third of the wells were counted at random to ensure even distribution of the cells to the wells. […]

As to His-Pro-Phe (HPF) [AII(6-8)], in test [1], the effectiveness entry is “not to be effective”.

Tyr-Ile-His-Pro-Phe (YIHPF) [AII(4-8)]: in test [1], the effectiveness result is reported as “not to be effective; also recorded: ineffective”.

B1: GM-CSF: murine recombinant granulocyte macrophage-colony stimulating factor, 50 ng/ml (protein, UniProt P01587 18-141, looked up)
Granulocyte-macrophage …: APTRSPITVTRPWKHVEAIKEALNLLDDMPVTLNEEVEVVSNEFSFKKLTCVQTRLKIFEQGLRGNFTKLKGALNMTASYYQTYCPPTPETDCETQVTTYADFIDSLKTFLTDIPFECKKPGQK
Turning to B1, in the test on dendritic cells, the “number of cells per well / cellular proliferation, cytokine without angiotensin peptide” value is reported as “did not increase cellular proliferation”.

B2: IL-6: murine recombinant Interleukin 6 (IL-6), 25 ng/ml (protein, UniProt P08505 25-211, looked up)
Interleukin-6: FPTSQVRRGDFTEDTTPNRPVYTTSQVGGLITHVLWEIVEMRKELCNGNSDCMNNDDALAENNLKLPEIQRNDGCYQTGYNQEICLLKISSGLLEYHSYLEYMKNNLKDNKKDKARVLQRDTETLIHIFNQEVKDLHKIVLPTPISNALLTDKLESQKEWLRTKTIQFILKSLEEFLKVTLRSTRQT
In the case of B2, in the test on dendritic cells, the “number of cells per well / cellular proliferation, cytokine without angiotensin peptide” value is listed as “did not affect the number of cells per well”.
